The values that follow come from PMC9223397 (International Journal of Molecular Sciences, 2022).

The IC50 is the point on the concentration scale where inhibition reaches its midpoint. Read a low IC50 as greater potency.

One data set relates to Sig-1R/BiP interaction. Nature of the data set: BiP/Sig-1R association assay in CHO cells. In kind it is cell-based. As to conditions: for Effect on Sig-1R/BiP association: 10 µM. On the procedure: The interaction between Sig-1R and the chaperone BiP was used to identify the functional nature (agonistic or antagonistic) of compounds [38]. The assay was conducted by Amylgen according to their standard assay protocol (https://www.amylgen.fr/ (accessed on 15 May 2022)). Each assay condition consisted of six determinations. In brief, CHO cells were treated with compounds at 37 °C for 30 min and lysed. CHO cell lysates were immunoprecipitated with Sig-1R antibody, and coimmunoprecipitated BiP was detected by ELISA assay. In each experiment, untreated control cell lysates were used to assess the maximal level of Sig1R-BiP interaction and represented 100% of Sig1R-BiP association. Cells treated with compounds at the corresponding concentrations were equally processed, and the level of Sig1R-BiP association in those conditions was referred to as the control condition. In this experimental setting, Sig1R agonists were able to reduce the Sig1R-BiP interaction, while antagonists were not.

The target in data set [1] is T1, human Sigma-2 receptor (Sig-2R) (Homo sapiens, UniProt Q5BJF2).
T1 construct: expressed in transfected cells; host or cells: HEK-293 Sig-1R knockout (membranes)
T1 sequence (Q5BJF2 whole entry): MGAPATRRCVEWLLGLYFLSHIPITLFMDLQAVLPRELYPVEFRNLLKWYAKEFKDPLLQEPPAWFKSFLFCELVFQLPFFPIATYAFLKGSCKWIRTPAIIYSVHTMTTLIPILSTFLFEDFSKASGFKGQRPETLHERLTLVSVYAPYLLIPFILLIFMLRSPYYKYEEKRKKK
In words: Human Sig-2R radioligand assay. In kind it is binding. The settings on record: [3H]-DTG, transfected HEK-293 Sig-1R knockout membranes. As to the method: The binding properties of the compounds to the human Sig-2R were similarly studied in transfected HEK-293 Sig-1R knockout membranes using [^3H]-1,3-di-o-tolylguanidine (DTG) (NET-986, PerkinElmer; Boston, USA) as the radioligand. The assay was carried out with 15 μg of membrane suspension, [^3H]-1,3-di-o-tolylguanidine (DTG) (10 nM, 100 μL), in either the absence or presence of either buffer or 10 μM haloperidol for total (TB) and nonspecific (NSB) binding, respectively, or the corresponding compound concentration. Binding buffer contained Tris-HCl (50 mM, pH 7.4). Plates were incubated at 25 °C for 120 min. After incubation, the reaction mix was transferred to MultiScreen HTS, FC plates (Merck Millipore) presoaked in 0.5% polyethyleneimine, and filtered. Following that, plates were washed with ice-cold Tris-HCl (10 mM, pH 8). Filters were dried and counted, and data were processed as above.

For data set [2], the system named is microglia and astrocytes in ventral horn after rhizotomy. Nature of the data set: Glial reactivity after L4-L5 rhizotomy (Iba1, GFAP immunolabeling). In kind it is in vivo, female mice (B6SJL). The settings on record: 0.25 mg/kg bid i.p., 42 dpi. As to the method: (§1) Surgeries were performed on three-month-old mice under anesthesia with ketamine-xylazine (100–10 mg/kg i.p.) as previously described. Briefly, the L4-L5 spinal roots were exposed by a small laminectomy on the right side. Afterwards, roots were cut at the exit from the intervertebral foramina, and the root stumps were separated. Mice were cared for until recovery in a warm environment. Analgesia was provided with buprenorphine (0.1 mg/kg) for the next 48 h post-surgery.
(§2) The compounds were dissolved in 0.5% hydroxypropyl-methylcellulose (HPMC; H7509, Sigma-Aldrich) in distilled water and were administered by intraperitoneal (i.p.) route twice daily (bid) in a volume of 10 mL/kg. Administrations were given from 30 min after rhizotomy surgery until 42 days post-injury (dpi), the end of the study; in the SOD1^G93A study, treatments were given from 8 to 16 weeks of age (see Figure 6).
(§3) For glial cells immunofluorescence, other lumbar spinal cord sections were blocked with 10% normal donkey serum and incubated overnight with primary antibodies rabbit anti-Iba1 (1:500; 019–19741, Wako) and rat anti-GFAP (1:500; 13-0300, Invitrogen) to label microglia and astroglia, respectively. After several washes, sections were incubated with secondary antibodies Alexa Fluor 488-donkey anti-rat (1:500; A-21208, Invitrogen) or Alexa Fluor 594 donkey anti-rabbit (1:500; A21207, Invitrogen). Finally, sides were mounted with Fluoromount-G. To quantify glial cell reactivity, images of the ventral horn were acquired with an epifluorescence microscope (Nikon Eclipse Ni, Japan) using the same conditions for each analyzed marker. After defining a threshold for background correction, the integrated density of GFAP or Iba1 labeling was measured using ImageJ software.

Data set [3] has as its system spinal MNs after L4-L5 rhizotomy. Nature of the data set: MN survival after L4-L5 rhizotomy (cresyl violet MN counts). As to conditions: 0.25 mg/kg bid i.p., 42 dpi; positive control. In kind it is in vivo, female mice (B6SJL). On the procedure: as §1, §2
(§4) At the end of follow-up (42 dpi for rhizotomy and 16 weeks of age for ALS mice; Figure 6), the animals were deeply anesthetized and transcardially perfused with 4% PFA in PBS. The lumbar spinal cord and the TA muscle were harvested and cryopreserved in 30% sucrose solution in PB. The spinal cords were serially cut in 20 µm thick transverse sections with a cryostat (Leica, Mannheim, Germany). For MN counting, L4-L5 spinal cord sections separated 100 µm were stained for 3 h with an acidified solution of 3.1 mM cresyl violet. MNs were identified by their localization in the lateral ventral horn of the spinal cord and were counted following strict size and morphological criteria: only MNs with a diameter larger than 20 µm, polygonal shape, and prominent nucleoli were counted.

Data set [4] concerns NMJs of hindlimb muscle in SOD1^G93A mice. Nature of the data set: Neuromuscular junction innervation in SOD1G93A mice. In kind it is in vivo, SOD1^G93A male mice. The settings on record: 0.25 mg/kg i.p.; 16 weeks of age. As to the method:
as §2
For neuromuscular junction (NMJ) labeling, 50 µm thick longitudinal sections of TA muscle were serially cut. Sections were blocked with 5% normal donkey serum and incubated with primary antibodies rabbit anti-synaptophysin (1:500; Ab32127, Abcam, Cambridge, UK) and chicken anti-neurofilament 200 (NF200, 1:1000; AB5539, Millipore, Burlington, MS, USA) 48 h at 4 °C. After washes, sections were incubated overnight with secondary antibody Alexa Fluor 594-donkey anti-rabbit and anti-chicken (1:200; A11042-A21207, Invitrogen, USA) and Alexa 488 conjugated α-bungarotoxin (1:500; B13422, Life Technologies, Carlsbad, CA USA). Confocal images were captured (LSM 700 Axio Observer, Carl Zeiss, Jena, Germany, 40xOil/z0.5), and the maximum projection images generated from 1.3 µm z projections. The proportion of innervated NMJs was calculated by classifying each endplate as occupied (when presynaptic terminals overlie the endplate) or vacant (no presynaptic label in contact with the endplate). At least 60 endplates were analyzed per muscle.

A short description of data set [5]: Plasma levels, spinal nerve injury (rhizotomy) model. In kind it is in vivo, female mouse. As to conditions: plasma, ip; spinal nerve injury female mouse, 0.25 mg/kg i.p.; 30 min post-administration; data obtained in a separate study. As to the method: as §2
Plasma levels were determined in the two in vivo models evaluated to be able to associate the pharmacological activity with the levels present in plasma. […] In the SOD1^G93A model, the plasma levels were evaluated at 16 weeks of age (after 8 weeks of administration) and 15 min after compound administration (5 mg/kg i.p.). Plasma samples were assayed by ultraperformance liquid chromatography−triple quadrupole mass spectrometry (UPLC-MS/MS) after plasma protein precipitation. Results are expressed as mean ± standard deviation (n = 8).

The subject of data set [6] is microglia and astrocytes in ventral horn of SOD1^G93A mice. Nature of the data set: Glial reactivity in SOD1G93A mice (Iba1, GFAP). The settings on record: 0.25 mg/kg i.p.; 16 weeks of age. In kind it is in vivo, SOD1^G93A male mice. As to the method: as §2, §3
The test system of data set [7] is spinal α-MNs in SOD1^G93A mice. In words: Spinal MN counts in SOD1G93A mice. In kind it is in vivo, SOD1^G93A male mice. The settings on record: 0.25 mg/kg i.p.; 16 weeks of age. As to the method: as §2, §4
For the next data set, the system named is SOD1^G93A mice. Nature of the data set: Rotarod test in SOD1G93A mice. In kind it is in vivo, SOD1^G93A male mice. The settings on record: 0.25 mg/kg i.p.; at 15 and 16 weeks. On the procedure:
as §2
A rotarod test was performed to evaluate motor coordination and strength. The time that each animal remained on the rotating rod at a speed of 14 rpm was measured for five trials per mouse, and the longest time until falling was recorded; 180 s was chosen as the cut-off time. The test was performed weekly from 8 to 16 weeks of age in SOD1^G93A and WT mice, and disease onset was determined as the first week when each mouse was unable to keep walking for 180 s on the rod.
In general terms: In the rotarod test animals must keep their balance on a rotating rod.

The nature of data set [8]: Body weight in SOD1G93A mice. In kind it is in vivo, SOD1^G93A male mice. The settings on record: 0.25 mg/kg i.p., 8 to 16 weeks of age. On the procedure: as §2
Data set [9] is described as follows: Plasma levels, SOD1G93A model. In kind it is in vivo, Transgenic SOD1^G93A male mouse. As to conditions: SOD1G93A transgenic, plasma, ip; SOD1G93A male mouse, 0.25 mg/kg i.p.; 30 min post-administration; data obtained in a separate study. As to the method:
as §2
Plasma levels were determined in the two in vivo models evaluated to be able to associate the pharmacological activity with the levels present in plasma. In the rhizotomy model, the plasma levels were evaluated at Day 42 after surgery and at 15 min after compound administration (0.5 and 5 mg/kg i.p.). […] Plasma samples were assayed by ultraperformance liquid chromatography−triple quadrupole mass spectrometry (UPLC-MS/MS) after plasma protein precipitation. Results are expressed as mean ± standard deviation (n = 8).

In data set [10] the test system is NSC34 SOD1^G93A-induced cell death. Also on record: method as in PMID 24334165. The settings on record: more significant effect at 10 μM; cited from earlier work.

Regarding `CCCN(CCC)CCc1ccc(OC)c(OCCc2ccccc2)c1` [NE100, reference compound], the “Effect on Sig-1R/BiP association” value with Sig-1R/BiP interaction is recorded as “antagonist effect”. Besides, the “Reversion of the effect of PRE-084 on Sig-1R/BiP association” value with Sig-1R/BiP interaction (compound 10 µM, PRE-084 10 µM) is “able to revert the effect of PRE-084”.
Consider `O=C(OCCN1CCOCC1)C1(c2ccccc2)CCCCC1` [PRE-084, 2-(4-Morpholinethyl)1-Phenylcyclohexanecarboxylate, reference compound], for which, in data set [1], the IC50 is greater than 10 µM. In addition, in data set [2], the “GFAP integrated density ± SEM (astroglial reactivity)” value is given as 6 × 10^4 ± 0.9 × 10^4 and the “Iba1 integrated density ± SEM (microglial reactivity)” value was 15 × 10^4 ± 1.4 × 10^4. For the same compound, the “Number of spinal MNs ± SEM, ipsilateral ventral horn” value in [3] was 8.9 ± 0.4. The “Proportion of innervated endplates (NMJ) vs untreated” value in data set [4] is “significantly increased the proportion of innervated endplates”. The compound further registered a concentration at 30 min in data set [5] of 3.6 ng/mL. Besides, the “Astrocyte activation (GFAP)” value in [6] is “significant decrease in astrocyte activation”. In data set [7], the “Number of surviving spinal α-MNs” value turned out to be 12.4 ± 0.9 MNs per section. Further, the “Effect on Sig-1R/BiP association” value with Sig-1R/BiP interaction is reported as “Agonist effect”. Besides, the “Rotarod performance vs vehicle” value in the data set with SOD1^G93A mice is reported as “significantly improved the functional outcome”. In data set [8], the “Body weight vs vehicle group” value was “did not cause differences in body weight”. The compound further gave a concentration at 30 min in data set [9] of 2.6 ng/mL.
In the case of `COc1ccc(CCN2CCN(CCCc3ccccc3)CC2)cc1OC` [SA4503], the “NSC34 SOD1G93A-induced cell death” value in [10] was “reduced NSC34 SOD1^G93A-induced cell death in a concentration-dependent manner”.
